Source: patent US20250163122A1, “COMPOSITIONS AND METHODS FOR TREATING AIRWAY MUCUS DYSFUNCTION” (BOARD OF REGENTS, THE UNIVERSITY OF TEXAS SYSTEM, priority 2022, published 2025)
Entries after “also recorded” stand apart in the source; their conditions may differ. Where a SMILES comes first, the peptide text is derived from it. Bridges are numbered along the chain shown (N, C = ends). [ ]: non-standard residue; d: D form. S5 = C=CCCC[C@](C)(N)C(=O)O

Tests used:
[1] = system: neuronal SNAREs and Syt1; experiment: Single vesicle content mixing assay, neuronal SNAREs and Syt1; type: biochemical; conditions: 10 μM peptide, raw count; for Ca2+ triggered fusion events: 500 μM Ca2+
From the text: (§1) For single vesicle content mixing assay, the lipid composition of the SV, SG, VAMP2, or VAMP8 vesicles was phosphatidylcholine (PC) (48%), phosphatidylethanolamine (PE) (20%), phosphatidylserine (PS) (12%), and cholesterol (20%); for both the neuronal and airway PM vesicles the lipid composition was Brain Total Lipid Extract supplemented 3.5 mol % PIP2, and 0.1 mol % biotinylated phosphatidylethanolamine (PE).
(§2) The reconstitution method for neuronal PM and SV vesicles was described in detail previously (see Lai et al., 2017; Kyoung et al., 2011; and Lai et al., 2014). The same methods were used for airway PM, SG, VAMP2, and VAMP8 vesicles. Dried lipid films were dissolved in 110 mM OG buffer containing purified proteins at protein-to-lipid ratios of 1:200 for VAMP2 and Stx1A for SV and neuronal PM vesicles, respectively (or 1:200 for VAMP8 and Stx3 for SG and airway PM vesicles, respectively), and 1:800 for Syt1 for SV vesicles (or 1:1200 for Syt2 for SG vesicles).
(§3) A 3-5 fold excess of SNAP-25A or SNAP-23 (with respect to Stx1A or Stx3) and 3.5 mol % PIP2 were added to the protein-lipid mixture for neuronal or airway PM vesicles. […] For the preparation of SV, SG, VAMP2, or VAMP8 vesicles for single vesicle content mixing assay, 50 mM sulforhodamine B (Thermo Fisher Scientific) was added to the protein-lipid mixture. The vesicles subsequently formed during size exclusion chromatography using a Sepharose CL-4B column, packed under near constant pressure by gravity with a peristaltic pump (GE Healthcare) in a 5.5 ml column with a ˜5 ml bed volume that was equilibrated with buffer V (20 mM HEPES, pH 7.4, 90 mM NaCl) supplemented with 20 μM EGTA and 0.1% 2-mercaptoethanol. The eluent was subjected to dialysis into 21 of detergent-free buffer V supplemented with 20 μM EGTA, 0.1% 2-mercaptoethanol, 5 g of Bio-beads SM2 (Bio-Rad) and 0.8 g/L Chelex 100 resin (Bio-Rad). After 4 hours, the buffer was exchanged with 21 of fresh buffer V supplemented with 20 μM EGTA, 0.1% 2-mercaptoethanol and Bio-beads, and the dialysis continued for another 12 h (overnight). […] For ensemble lipid mixing assay, the reconstitution method is the same as that for the single vesicle content mixing assay, except that 50 mM sulforhodamine B was omitted for all the steps.
(§4) Single vesicle content mixing experiments. All single vesicle fusion and single molecule experiments were performed on a prism-type total internal reflection fluorescence (TIRF) microscope using 532 nm (green) laser (CrystaLaser) excitation. Two observation channels were created by a 640 nm single-edge dichroic beamsplitter (FF640-FDi01-25x36, Shemrock): one channel was used for the fluorescence emission intensity of the content dyes and the other channel for that of the Cy5 dye that are part of the injected Ca^2+-solution. The two channels were recorded on two adjacent rectangular areas (45×90 m^2) of a charge-coupled device (CCD) camera (iXon+DV 897E, Andor Technology). The imaging data were recorded with the smCamera software developed by Taekjip Ha, Johns Hopkins University, Baltimore.
(§5) Flow chambers were assembled by creating a “sandwich” consisting of a quartz slide and a glass coverslip that were both coated with polyethylene glycol (PEG) molecules consisting 0.1% (w/v) biotinylated-PEG except when stated otherwise, and using double-sided tape to create up to five flow-chambers.
(§6) The single vesicle content mixing assay described in Lai et al. (2014) was used to monitor vesicle-vesicle association, Ca^2+-independent, and Ca^2+-triggered fusion. The surface of the quartz slides was passivated by coating the surface with polyethylene glycol (PEG) molecules which alleviated non-specific binding of vesicles. The same protocol and quality controls (surface coverage and non-specific binding) were used as described previously (Kyoung et al., 2011; Kyoung et al., 2012) except that PEG-SVA (Laysan Bio) instead of mPEG-SCM (Laysan Bio) was used since it has a longer half-life. […]

[2] = CD spectroscopy, α-helical content of peptides; type: physicochemical; conditions: for helical content, ranking in words: among the peptides tested
Description: CD spectroscopy. CD spectra were measured with an AVIV stop-flow CD spectropolarimeter at 190 to 250 nm using a cell with a 1 mm path-length. The sample containing […] of synthesized peptides in PBS buffer (137 mM NaCl, 2.7 mM KCl, 10 mM Na2HPO4, and 2 mM KH2PO4, pH 7.4) was measured at 20° C. For the correction of the baseline error, the signal from a blank run with PBS buffer was subtracted from all the experimental spectra. The α-helical content of each peptide was calculated by dividing the mean residue ellipticity [φ]222obs by the reported [φ]222obs for a model helical decapeptide (Yang et al., 1986).

[3] = molecular target: T1, neuronal SNAREs and Syt1_QM (Rattus norvegicus, UniProt P21707, E295A/R281A/R398A/R399A/Y338W); experiment: Single vesicle content mixing assay, neuronal SNAREs and Syt1_QM; type: biochemical; conditions: 10 μM peptide, raw count; for Ca2+ triggered fusion events: 500 μM Ca2+
T1 construct: made in house
T1 sequence (P21707 whole entry R281A/E295A/Y338W/R398A/R399A, the tested form may be a part): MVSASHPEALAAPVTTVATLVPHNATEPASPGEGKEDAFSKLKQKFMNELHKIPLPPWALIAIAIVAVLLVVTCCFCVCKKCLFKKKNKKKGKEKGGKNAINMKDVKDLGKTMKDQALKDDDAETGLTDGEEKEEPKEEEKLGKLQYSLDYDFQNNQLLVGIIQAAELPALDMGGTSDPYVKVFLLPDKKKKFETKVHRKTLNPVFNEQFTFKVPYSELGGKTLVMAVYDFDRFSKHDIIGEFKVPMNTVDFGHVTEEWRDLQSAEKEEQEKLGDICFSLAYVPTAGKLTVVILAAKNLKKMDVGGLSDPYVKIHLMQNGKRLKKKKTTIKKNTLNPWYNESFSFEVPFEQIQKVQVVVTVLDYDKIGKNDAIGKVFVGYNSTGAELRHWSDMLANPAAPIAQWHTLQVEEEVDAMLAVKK
From the text: as §1, §2, §3, §4, §5, §6

[4] = molecular target: airway SNAREs and Syt2 (Rattus norvegicus, UniProt P29101); experiment: Single vesicle content mixing assay, airway SNAREs and Syt2 (airway PM and SG vesicles); type: biochemical; conditions: for Ca2+ triggered fusion events / Ca2+ independent fusion events: 10 μM peptide, raw count; for Ca2+ triggered fusion events: 500 μM Ca2+
Chain of airway SNAREs and Syt2 (P29101 whole entry, the tested form may be a part): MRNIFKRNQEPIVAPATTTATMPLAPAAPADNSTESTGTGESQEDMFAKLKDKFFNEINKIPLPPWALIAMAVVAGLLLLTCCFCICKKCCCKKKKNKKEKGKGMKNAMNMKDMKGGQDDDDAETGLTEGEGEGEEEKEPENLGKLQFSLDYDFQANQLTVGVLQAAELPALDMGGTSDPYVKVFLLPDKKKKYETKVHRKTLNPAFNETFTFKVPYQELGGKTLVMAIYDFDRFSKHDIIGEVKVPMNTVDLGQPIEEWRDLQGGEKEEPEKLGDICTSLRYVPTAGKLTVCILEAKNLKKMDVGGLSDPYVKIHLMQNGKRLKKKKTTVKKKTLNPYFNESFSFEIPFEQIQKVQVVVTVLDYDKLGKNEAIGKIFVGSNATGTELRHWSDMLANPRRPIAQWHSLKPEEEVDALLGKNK
From the text: as §1, §2, §3, §4, §5, §6

[5] = system: neuronal SNAREs and Syt1; experiment: Ensemble lipid mixing assay, neuronal PM and SV vesicles; type: biochemical; conditions: for effect on ensemble lipid mixing: with or without Ca2+, peptide concentration-dependent
From the text: Vesicle reconstitution. For the ensemble lipid mixing assay, the lipid composition of the SV vesicles was phosphatidylcholine (PC) (46%), phosphatidylethanolamine (PE) (20%), phosphatidylserine (PS) (12%), cholesterol (20%), and 1,1′-dioctadecyl-3,3,3′,3′-tetramethylindodicarbocyanine perchlorate (DiD) (Invitrogen) (2%); for the both neuronal and airway PM vesicles the lipid composition was Brain Total Lipid Extract supplemented 3.5 mol % PIP2, 0.1 mol % biotinylated phosphatidylethanolamine (PE) and 1,1′-dioctadecyl-3,3,3′,3′-tetramethylindocarbocyanine perchlorate (DiI) (Invitrogen). All the lipids are from Avanti Polar Lipids.
as §3
Bulk lipid mixing experiments with neuronal synaptic proteins. Protein-reconstituted neuronal PM and SV vesicles were mixed at a molar ratio of 1:1, both at 0.1 mM lipid concentration. Lipid mixing is measured by monitoring the fluorescent emission (670 nm) of the DiD dyes in the SV vesicles by FRET using 530 nm laser light excitation of the DiI dyes in neuronal PM vesicles. The fluorescence intensity was monitored in two channels at 570 nm and 670 nm, respectively. Fluorescence changes were recorded with a Varian Cary Eclipse model fluorescence spectrophotometer using a quartz cell of 100 μl with a 5 mm path length. All measurements were performed at 35° C.

## Ac-SKD(S5)GIR(S5)LV(S5)LDE(S5)GEQL-amide (Ac-SKD[S5]GIR[S5]LV[S5]LDE[S5]GEQL-NH2; staple 11-15, 4-8; SMILES CC[C@H](C)[C@@H]1NC(=O)CNC(=O)[C@@](C)(NC(=O)[C@H](CC(=O)O)NC(=O)[C@H](CCCCN)NC(=O)[C@H](CO)NC(C)=O)CCCC=CCCC[C@@](C)(C(=O)N[C@@H](CC(C)C)C(=O)N[C@H](C(=O)N[C@@]2(C)CCCC=CCCC[C@@](C)(C(=O)NCC(=O)N[C@@H](CCC(=O)O)C(=O)N[C@@H](CCC(N)=O)C(=O)N[C@@H](CC(C)C)C(N)=O)NC(=O)[C@H](CCC(=O)O)NC(=O)[C@H](CC(=O)O)NC(=O)[C@H](CC(C)C)NC2=O)C(C)C)NC(=O)[C@H](CCCNC(=N)N)NC1=O) [SP10]
[1]
  Ca2+ triggered fusion events: 495
  Ca2+ independent fusion events: 263
[2]
  helical content, ranking in words: largest helical content
[3]
  Ca2+ triggered fusion events: 367
  Ca2+ independent fusion events: 252
[4]
  Ca2+ triggered fusion events: 273
  Ca2+ independent fusion events: 327
[5]
  effect on ensemble lipid mixing: substantially inhibited

## Ac-SKD(S5)GIR(S5)LVMLDE(S5)GEQ(S5)DR-amide (Ac-SKD[S5]GIR[S5]LVMLDE[S5]GEQ[S5]DR-NH2; staple 15-19, 4-8; SMILES CC[C@H](C)[C@@H]1NC(=O)CNC(=O)[C@@](C)(NC(=O)[C@H](CC(=O)O)NC(=O)[C@H](CCCCN)NC(=O)[C@H](CO)NC(C)=O)CCCC=CCCC[C@@](C)(C(=O)N[C@@H](CC(C)C)C(=O)N[C@H](C(=O)N[C@@H](CCSC)C(=O)N[C@@H](CC(C)C)C(=O)N[C@@H](CC(=O)O)C(=O)N[C@@H](CCC(=O)O)C(=O)N[C@@]2(C)CCCC=CCCC[C@@](C)(C(=O)N[C@@H](CC(=O)O)C(=O)N[C@@H](CCCNC(=N)N)C(N)=O)NC(=O)[C@H](CCC(N)=O)NC(=O)[C@H](CCC(=O)O)NC(=O)CNC2=O)C(C)C)NC(=O)[C@H](CCCNC(=N)N)NC1=O) [SP1]
[1]
  Ca2+ triggered fusion events: 210
  Ca2+ independent fusion events: 235
[2]
  helical content, ranking in words: largest helical content
[3]
  Ca2+ triggered fusion events: 282
  Ca2+ independent fusion events: 226
[4]
  Ca2+ triggered fusion events: 275
  Ca2+ independent fusion events: 251
[5]
  effect on ensemble lipid mixing: substantially inhibited

## CC[C@H](C)[C@H](NC(=O)[C@]1(C)CCCC=CCCC[C@](C)(NC(=O)[C@H](CCC(=O)O)NC(=O)[C@H](CCC(=O)O)NC(C)=O)C(=O)N[C@@H](CCCCN)C(=O)N[C@@H](CC(=O)O)C(=O)N[C@@H](C)C(=O)N1)C(=O)N[C@@H](CCCNC(=N)N)C(=O)N[C@@]1(C)CCCC=CCCC[C@@](C)(C(=O)N[C@@H](CC(=O)O)C(=O)N[C@@H](CCC(=O)O)C(=O)N[C@@H](CCC(N)=O)C(=O)N[C@@H](CS)C(N)=O)NC(=O)[C@H](CCSC)NC(=O)[C@H](C(C)C)NC(=O)[C@H](CC(C)C)NC1=O [SP9, Ac-EE(S5)KDA(S5)IR(S5)LVM(S5)DEQC-amide] (Ac-EE[S5]KDA[S5]IR[S5]LVM[S5]DEQC-NH2; staple 3-7, 10-14)
[1]
  Ca2+ triggered fusion events: 272
  Ca2+ independent fusion events: 165
[2]
  helical content, ranking in words: largest helical content; also recorded: highest α-helicity
[3]
  Ca2+ triggered fusion events: 260
  Ca2+ independent fusion events: 242
[4]
  Ca2+ triggered fusion events: 250
  Ca2+ independent fusion events: 274
[5]
  effect on ensemble lipid mixing: substantially inhibited

## Ac-SKDA(S5)IRT(S5)VM(S5)DEQ(S5)EQL-amide (Ac-SKDA[S5]IRT[S5]VM[S5]DEQ[S5]EQL-NH2; staple 12-16, 5-9; SMILES CC[C@H](C)[C@@H]1NC(=O)[C@@](C)(NC(=O)[C@H](C)NC(=O)[C@H](CC(=O)O)NC(=O)[C@H](CCCCN)NC(=O)[C@H](CO)NC(C)=O)CCCC=CCCC[C@@](C)(C(=O)N[C@H](C(=O)N[C@@H](CCSC)C(=O)N[C@@]2(C)CCCC=CCCC[C@@](C)(C(=O)N[C@@H](CCC(=O)O)C(=O)N[C@@H](CCC(N)=O)C(=O)N[C@@H](CC(C)C)C(N)=O)NC(=O)[C@H](CCC(N)=O)NC(=O)[C@H](CCC(=O)O)NC(=O)[C@H](CC(=O)O)NC2=O)C(C)C)NC(=O)[C@H]([C@@H](C)O)NC(=O)[C@H](CCCNC(=N)N)NC1=O) [SP4]
[1]
  Ca2+ triggered fusion events: 210
  Ca2+ independent fusion events: 261
[2]
  helical content, ranking in words: largest helical content
[3]
  Ca2+ triggered fusion events: 248
  Ca2+ independent fusion events: 222
[4]
  Ca2+ triggered fusion events: 231
  Ca2+ independent fusion events: 237
[5]
  effect on ensemble lipid mixing: substantially inhibited

## EESKDAGIRTLVMLDEQGEQLD [Peptide P0, non-stapled SNAP-25A fragment used as a control, reference compound]
[1]
  Ca2+ triggered fusion events: 591
  Ca2+ independent fusion events: 493
[2]; in solution, CD [φ]222 vs model helical decapeptide
  helicity / helical content: 5%
[4]
  Ca2+ triggered fusion events: 219
  Ca2+ independent fusion events: 113
[4]; up to 10 μM peptide
  effect on Ca2+-triggered cumulative fusion probability: no effect
  effect on intrinsic Ca2+-independent fusion probability: no effect
[5]
  effect on Ca2+-triggered ensemble lipid mixing: little effect
[5]; 10 μM and 100 μM peptide
  effect on Ca2+-independent ensemble lipid mixing: little effect
